What was measured:
[1] = Cytotoxicity in HepG2.2.15 cells (CellTiter Glo); type: cell-based; conditions: human, highest concentration 150 μM
Procedure: Test 2: Cytotoxicity and Selectivity Index
Methods of Testing Cytotoxicity and Selectivity Index
The serial diluted compound was added to a 384 wells plate at 50 μL HepG2.2.15 cell per well (3000 cells per well), the highest final concentration in the experiment is 150 μM (200 fold dilution). The plate was cultured at 37° C. in an incubator with C02 for 4 days, and cytotoxicity of the compound was detected using CellTiter Glo agent.
The cytotoxicity of the compound was calculated using the following formulate, cytotoxicity (%)=100−(detection value/mean of DMSO control wells values×100). CC50 values were calculated by a four parametric nonlinear regression model using Graphpad Prism 5 software to manage concentration−cytotoxicity (%). […]

[2] = system: HBV; assay: Anti HBV activity in vitro, viral DNA from HepG2.2.15 cells quantified by qPCR; type: cell-based; conditions: Hepatitis B virus, qPCR of viral DNA in supernatant, read-out: EC50 against HBV replication
Procedure: Test 1: Test Method of EC50 of Anti HBV
HBV Cell Line and Culture Conditions
HepG2.2.15 (SELLS, PNAS, 1987 and SELLS, JV, 1988) chromosomes have an integrated complete HBV genome, and stably express viral RNA and viral protein. HepG2.2.15 cells can secrete mature HBV particles, HBsAg and HBeAg to medium. HepG2.2.15 cells were cultured in DMEM containing 10% fetal bovine serum, 100 U/mL penicillin, 100 U/mL streptomycin, 1% non essential amino acid, 1 mM sodium pyruvate and 300 µg/mL G418.
Viral particles DNA secreted from HepG2.2.15 cells can be quantified by qPCR, and the effect of the compound on viral replication can be detected.
Test of Anti HBV Activity In Vitro
8000 HepG 2.2.15 cells per well were seeded into a 96-well plate, the plate was cultured at 37° C. and 5% CO2 for 3 days till the cells grew to full wells. Old liquid medium can be removed and replaced with new medium (200 μL) on day 0.
Formulating the compound and treating the cells in the experiment of anti virus: the compound was dissolved in DMSO to a concentration of 30 mM, and then the compound solution was diluted with DMSO to a concentration of […], and then eight dilutions at 4 fold were performed, the highest concentration is 800 μM. The serial diluted compound was added to the above plate at 1 μL per well, the highest final concentration in the experiment is 4 μM (200 fold dilution). TDF (tenofovir dipiroxil fumarate, Selleck, Cat S1400) has a highest concentration of 4 μM as a positive control. 1 μL of DMSO was added in to the positive control well at a final concentration of 0.5%, TDF was added in to the positive control well at a final concentration of 1 μM.
Detection of Viral Genomic DNA by qPCR
Primer: HBV-For-202, […]; HBV-Rev-315, […]. Copies of virus can be calculated using a standard curve plotted by using plasmid containing HBV genome and using SYBR Premix Ex Taq II Takara DRR081S kit and 1 μL cell culture supernatant as a template. EC50 values of the compound on viral replication were calculated by a four parametric nonlinear regression model using Graphpad Prism 5 software to manage concentration—viral copy number.

Compound | CC50 at 4 days [1] | EC50 [2]
CCOC(=O)C1=C(CN2CCN3C(=O)N(c4ccc(CC(C)(C)C(=O)O)cc4)C[C@@H]3C2)NC(c2nccs2)=N[C@H]1c1ccc(F)cc1Cl [Example 29, 3-(4-((S)-7-(((R)-6-(2-chloro-4-fluorophenyl)-5-(ethoxycarbonyl)-2-(thiazol-2-yl)-3,6-dihydropyrimidin-4-yl)methyl)-3-oxohexahydroimidazo[1,5-a]pyrazin-2(3H)-yl)phenyl)-2,2-dimethylpropionic Acid] | > 150 µM | 6 nM
COC(=O)C1=C(CN2CCN3C(=O)N(c4ccc(C(CC(=O)O)NC(=O)OC(C)(C)C)cc4)C[C@@H]3C2)NC(c2nccs2)=N[C@H]1c1ccc(F)cc1Cl (stereo partly drawn) [Example 16, 3-((tert-butoxycarbonyl)amino)-3-(4-((S)-7-(((R)-6-(2-chloro-4-fluorophenyl)-5-(methoxycarbonyl)-2-(thiazol-2-yl)-3,6-dihydropyrimidin-4-yl)methyl)-3-oxohexahydroimidazo[1,5-a]pyrazin-2 (3H)-yl)phenyl)propanoic Acid] | > 150 µM | 14 nM
COC(=O)C1=C(CN2CCN3C(=O)N(c4ccc(CCC(=O)O)cc4)C[C@H]3[C@@H]2CO)NC(c2nccs2)=N[C@H]1c1ccc(F)cc1Cl [Example 59A] | > 150 µM | 
CCOC(=O)C1=C(CN2CCN3C(=O)N(c4ccc(CCC(=O)O)cc4)C[C@@H]3[C@H]2COC)NC(c2nccs2)=N[C@H]1c1ccc(F)cc1Br [Example 57, 3-(4-((8S,8aR)-7-(((R)-6-(2-bromo-4-fluorophenyl)-5-(ethoxycarbonyl)-2-(thiazol-2-yl)-3,6-dihydropyrimidin-4-yl)methyl)-8-(methoxymethyl)-3-oxohexahydroimidazo[1,5-a]pyrazin-2(3H)-yl)phenyl)propionic Acid] |  | 12 nM
COC(=O)C1=C(CN2CCN3C(=O)N(c4ccc(CC(=O)O)cc4)C[C@@H]3C2)NC(c2nccs2)=N[C@H]1c1ccc(Cl)cc1Cl [Example 27, 2-(4-((S)-7-(((R)-6-(2,4-dichlorophenyl)-5-(methoxycarbonyl)-2-(thiazol-2-yl)-3,6-dihydropyrimidin-4-yl)methyl)-3-oxohexahydroimidazo[,5-a]pyrazin-2(3H)-yl)phenyl)acetic Acid] | > 150 µM | 7 nM
COC(=O)C1=C(CN2CCN3C(=O)N(c4ccc(C(NC(=O)OC(C)(C)C)C(=O)O)cc4)C[C@@H]3C2)NC(c2nccs2)=N[C@H]1c1ccc(F)cc1Cl (stereo partly drawn) [Example 46, 2-((tert-butoxycarbonyl)amino)-2-(4-((S)-7-(((R)-6-(2-chloro-4-fluorophenyl)-5-(methoxycarbonyl)-2-(thiazol-2-yl)-3,6-dihydropyrimidin-4-yl)methyl)-3-oxohexahydroimidazo[1,5-a]pyrazin-2(3H)-yl)phenyl)acetic Acid] | > 150 µM | 22 nM
COC(=O)C1=C(CN2CCN3C(=O)N(c4ccc(C(C)=O)cc4)C[C@@H]3C2)NC(c2nccs2)=N[C@H]1c1ccc(F)cc1Cl [Example 31, (R)-methyl 6-(((S)-2-(4-acetylphenyl)-3-oxohexahydroimidazo[1,5-a]pyrazin-7(1H)-yl)methyl)-4-(2-chloro-4-fluorophenyl)-2-(thiazol-2-yl)-1,4-dihydropyrimidine-5-carboxy late] | > 150 µM | 4 nM
COC(=O)C1=C(CN2CCN3C(=O)N(c4ccc(CCC(=O)O)cn4)C[C@@H]3C2)NC(c2nccs2)=N[C@H]1c1ccc(F)cc1Cl [Example 35, 3-(6-((S)-7-(((R)-6-(2-chloro-4-fluorophenyl)-5-(methoxycarbonyl)-2-(thiazol-2-yl)-3,6-dihydropyrimidin-4-yl)methyl)-3-oxohexahydroimidazo[1,5-a]pyrazin-2(3H)-yl)pyridin-3-yl)propionic Acid] |  | 8 nM
COC[C@@H]1[C@H]2CN(c3ccc(C(C)(C)C(=O)O)cc3)C(=O)N2CCN1CC1=C(C(=O)OC)[C@H](c2ccc(F)cc2Cl)N=C(c2nccs2)N1 [Example 61B] |  | 5 nM
COC[C@@H]1[C@H]2CN(c3ccc(CCC(=O)OC)cc3)C(=O)N2CCN1CC1=C(C(=O)OC)[C@H](c2ccc(F)cc2Cl)N=C(c2nccs2)N1 [Example 50B] |  | 8 nM
COC(=O)C1=C(CN2CCN3C(=O)N(c4ccc(/C=C/C(=O)O)cc4)C[C@@H]3C2)NC(c2nccs2)=N[C@H]1c1ccc(F)cc1Cl [Example 47, (E)-3-(4-((S)-7-(((R)-6-(2-chloro-4-fluorophenyl)-5-(methoxycarbonyl)-2-(thiazol-2-yl)-3,6-dihydropyrimidin-4-yl)methyl)-3-oxohexahydroimidazo[1,5-a]pyrazin-2(3H)-yl)phenyl)acrylic Acid] | > 150 µM | 3 nM
COCCN1C[C@@H](N2C[C@@H]3CN(CC4=C(C(=O)OC)[C@H](c5ccc(F)cc5Cl)N=C(c5nccs5)N4)CCN3C2=O)C[C@@H]1C(=O)O [Example 7, (2R,4S)-4-((S)-7-(((R)-6-(2-chloro-4-fluorophenyl)-5-(methoxycarbonyl)-2-(thiazol-2-yl)-3,6-dihydropyrimidin-4-yl)methyl)-3-oxohexahydroimidazo[1,5-a]pyrazin-2(3H)-yl)-1-(2-methoxyethyl)pyrrolidine-2-carboxylic Acid] |  | 56 nM
COC(=O)C1=C(CN2CCN3C(=O)N(C(CC(=O)O)c4ccccc4)C[C@@H]3C2)NC(c2nccs2)=N[C@H]1c1ccc(F)cc1Cl (stereo partly drawn) [Example 12, 3-((S)-7-(((R)-6-(2-chloro-4-fluorophenyl)-5-(methoxycarbonyl)-2-(thiazol-2-yl)-3,6-dihydropyrimidin-4-yl)methyl)-3-oxohexahydroimidazo[1,5-a]pyrazin-2(3H)-yl)-3-phenylpropionic Acid] |  | 37 nM
COC(=O)CCc1ccc(N2C[C@@H]3[C@@H](CO)N(CC4=C(C(=O)OC)[C@H](c5ccc(F)cc5Cl)N=C(c5nccs5)N4)CCN3C2=O)cc1 [Example 58B] |  | 14 nM
COC[C@@H]1[C@H]2CN(c3ccc(C(C)(C)C(=O)OC)cc3)C(=O)N2CCN1CC1=C(C(=O)OC)[C@H](c2ccc(F)cc2Cl)N=C(c2nccs2)N1 [Example 60B] |  | 4 nM
COC(=O)C1=C(CN2CCN3C(=O)N(c4cncc(CCC(=O)O)c4)C[C@@H]3C2)NC(c2nccs2)=N[C@H]1c1ccc(F)cc1Cl [Example 36, 3-(5-((S)-7-(((R)-6-(2-chloro-4-fluorophenyl)-5-(methoxycarbonyl)-2-(thiazol-2-yl)-3,6-dihydropyrimidin-4-yl)methyl)-3-oxohexahydroimidazo[1,5-a]pyrazin-2(3H)-yl)pyridin-3-yl)propionic Acid] | > 150 µM | 
COC(=O)C1=C(CN2CCN3C(=O)N([C@H](Cc4ccccc4)C(=O)O)CC3C2)NC(c2nccs2)=N[C@H]1c1ccc(F)cc1Cl (stereo partly drawn) [Example 11, (2R)-2-(7-(((R)-6-(2-chloro-4-fluorophenyl)-5-(methoxycarbonyl)-2-(thiazol-2-yl)-3,6-dihydropyrimidin-4-yl)methyl)-3-oxohexahydroimidazo[1,5-a]pyrazin-2(3H)-yl)-3-phenylpropionic Acid] |  | 32 nM
CCOC(=O)C1=C(CN2CCN3C(=O)N(c4ccc(/C=C(\C)C(=O)O)cc4)C[C@@H]3C2)NC(c2nccs2)=N[C@H]1c1ccc(F)cc1Br [Example 55, (E)-3-(4-((S)-7-(((R)-6-(2-bromo-4-fluorophenyl)-5-(ethoxycarbonyl)-2-(thiazol-2-yl)-3,6-dihydropyrimidin-4-yl)methyl)-3-oxohexahydroimidazo[1,5-a]pyrazin-2(3H)-yl)phenyl)-2-methylacrylic Acid] |  | 9 nM
COC[C@H]1[C@@H]2CN(c3ccc(CCC(=O)O)cc3)C(=O)N2CCN1CC1=C(C(=O)OC)[C@H](c2ccc(F)cc2Cl)N=C(c2nccs2)N1 [Example 51A] | > 150 µM | 
CCOC(=O)C1=C(CN2CCN3C(=O)N(c4ccc(/C(C)=C/C(=O)O)cc4)C[C@@H]3C2)NC(c2nccs2)=N[C@H]1c1ccc(F)cc1Br [Example 56, (E)-3-(4-((S)-7-(((R)-6-(2-bromo-4-fluorophenyl)-5-(ethoxycarbonyl)-2-(thiazol-2-yl)-3,6-dihydropyrimidin-4-yl)methyl)-3-oxohexahydroimidazo[1,5-a]pyrazin-2(3H)-yl)phenyl)-2-butenoic Acid] |  | 12 nM
